The text below walks through data of patent US20100113276A1, “USE OF N2-PHENYLAMIDINES AS HERBICIDES” (BAYER CROPSCIENCE AG, priority 2007, published 2010).

A short description of the series: log P by HPLC on reversed-phase column (C18), EEC Directive 79/831 Annex V.A8. The format is physicochemical. The conditions noted are these: C18, 40° C.; for log p HCO2H: aqueous formic acid / acetonitrile; for log p H3PO4: 0.1% aqueous phosphoric acid / acetonitrile. As to the method: The log P data were determined in accordance with the EEC Directive 79/831 Annex V.A8 by HPLC (High Performance Liquid Chromatography) on a reversed-phase column (C18) using the following methods: […]
Calibration was carried out with the help of unbranched alkan-2-ones (consisting of 3 to 13 or 16 carbon atoms) with known logP values (determination of the logP values via the retention times by means of linear interpolation between two subsequent alkanones).

The structures appear in SMILES notation.

Compound `Cc1cc(Oc2nc(C3(Cl)CC3)ns2)c(Cl)cc1N=CN1CCCCC1` [compound 614] displayed a log p acidic of 1.98.
Consider `CCN(C)C=Nc1cc(Cl)c(Oc2ncnc(Oc3ccc(Cl)cc3)c2F)cc1C` [compound 620], for which the “log p HCO2H” value came to 2.20.
Same read-out and setting: for `Cc1cc(Oc2ncnc(Oc3ccc(Cl)cc3)c2F)c(Cl)cc1N=CN1CCCCC1` [compound 622] the value was 2.41.
Compound `CCN(C)C=Nc1cc(F)c(-c2ccc(Cl)c(C(F)(F)F)c2)cc1C` [compound 656] gave a log p acidic of 2.37.
In the case of `Cc1cc(-c2ccc(Cl)cc2)c(F)cc1N=CN(C)C` [compound 663], the “log p H3PO4” value worked out at 2.04.
Same read-out and setting: for `CCN(C)C=Nc1cc(F)c(-c2ccc(Cl)cc2)cc1C` [compound 664] the value was 2.13; for `Cc1cc(-c2ccc(Cl)cc2)c(F)cc1N=CN(C)C(C)C` [compound 665], 2.22.
`CCN(C)C=Nc1cc(F)c(-c2ccc(C(C)(C)C)cc2)cc1C` [compound 669] returned a log p acidic of 2.38.
On the same count and under the same terms, for `CCN(C)C=Nc1cc(F)c(-c2ccc(OC(C)(C)C)cc2)cc1C` [compound 673] the value was 2.23.
On the same count and under the same terms, for `CCN(C)C=Nc1cc(F)c(-c2nnc(C3CC3)s2)cc1C` [compound 681] the value was 1.32; for `CCN(C)C=Nc1cc(Br)c(Oc2ccc(Cl)c(C(C)(C)C)c2)cc1C` [compound 697], 2.67; for `CCN(C)C=Nc1cc(OC)c(Oc2ccc(Cl)c(C(F)(F)F)c2)cc1C` [compound 721], 2.21.
The compound `CCN(C)C=Nc1cc(OC)c(Oc2ccc(Cl)c(C(C)(C)C)c2)cc1C` [compound 733] came in with a log p acidic of 2.75.
Still for that read-out and setting: under `CCN(C)C=Nc1cc(C(F)(F)F)c(Oc2cccc(C(C)(C)C)c2)cc1C` [compound 761] stands 2.94; under `Cc1cc(-c2cccc(C(C)C)c2)c(C(F)F)cc1N=CN1CCCCC1` [compound 799], 2.6.
`CCN(C)C=Nc1cc(Cl)c(Oc2ccccc2)cc1Cl` [compound 801]: the “log p H3PO4” value came to 1.86, the “log p HCO2H” value amounted to 1.91 and the log p neutral stood at 4.49.
In the case of `CC(C)N(C)C=Nc1cc(Cl)c(Oc2ccccc2)cc1Cl` [compound 802], the “log p H3PO4” value is recorded as 2, the “log p HCO2H” value came to 2.08 and the log p neutral stood at 4.84.
For `Clc1cc(Oc2ccccc2)c(Cl)cc1N=CN1CCCCC1` [compound 804], the “log p H3PO4” value was 2.03, the “log p HCO2H” value is reported as 2.12 and the log p neutral came out at 5.09.
With `CCN(C)C=Nc1cc(Cl)c(Oc2cccc(C(C)(C)C)c2)cc1Cl` [compound 806], the “log p H3PO4” value was 2.74, the “log p HCO2H” value is on record as 2.79 and the log p neutral worked out at 5.91.
The corresponding values for `CC(C)N(C)C=Nc1cc(Cl)c(Oc2cccc(C(C)(C)C)c2)cc1Cl` [compound 807] are 2.7, 2.82 and 6.13.
For `CC(C)(C)c1cccc(Oc2cc(Cl)c(N=CN3CCCCC3)cc2Cl)c1` [compound 809], the “log p H3PO4” value came to 2.81, the “log p HCO2H” value came to 3.04 and the log p neutral stood at 6.41.
The corresponding values for `CN(C)C=Nc1cc(Cl)c(Oc2ccc(Cl)c(C(C)(C)C)c2)cc1Cl` [compound 810] are 2.9, 2.94 and 6.13.
For `CCN(C)C=Nc1cc(Cl)c(Oc2ccc(Cl)c(C(C)(C)C)c2)cc1Cl` [compound 811], the “log p H3PO4” value is on record as 3.16, the “log p HCO2H” value was determined as 3.17 and the log p neutral stood at 6.64.
The corresponding values for `CC(C)N(C)C=Nc1cc(Cl)c(Oc2ccc(Cl)c(C(C)(C)C)c2)cc1Cl` [compound 812] are 3.35, 3.31 and 6.81.
In the case of `CC(C)(C)c1cc(Oc2cc(Cl)c(N=CN3CCCCC3)cc2Cl)ccc1Cl` [compound 814], the “log p H3PO4” value turned out to be 3.45, the “log p HCO2H” value is 3.62 and the log p neutral came out at 7.08.
On to `CN(C)C=Nc1cc(Cl)c(Oc2ccc(Cl)c(C(F)(F)F)c2)cc1Cl` [compound 815], for which the “log p H3PO4” value worked out at 2.35, the “log p HCO2H” value was found to be 2.45 and the log p neutral was 5.15.
With `CCN(C)C=Nc1cc(Cl)c(Oc2ccc(Cl)c(C(F)(F)F)c2)cc1Cl` [compound 816], the “log p H3PO4” value worked out at 2.6, the “log p HCO2H” value amounted to 2.65 and the log p neutral was determined as 5.56.
For `CC(C)N(C)C=Nc1cc(Cl)c(Oc2ccc(Cl)c(C(F)(F)F)c2)cc1Cl` [compound 817] the same measures were 2.74, 2.8 and 5.88.
For `FC(F)(F)c1cc(Oc2cc(Cl)c(N=CN3CCCCC3)cc2Cl)ccc1Cl` [compound 819] the same measures were 2.85, 3 and 6.12.
Take `CCN(C)C=Nc1cc(Cl)c(Oc2nc(C(C)(C)C)ns2)cc1Cl` [compound 825]: the “log p H3PO4” value stood at 2.34, the “log p HCO2H” value is on record as 2.56 and the log p neutral worked out at 5.25.
The corresponding values for `CC(C)N(C)C=Nc1cc(Cl)c(Oc2nc(C(C)(C)C)ns2)cc1Cl` [compound 826] are 2.53, 2.78 and 5.61.
`CCN(C)C=Nc1cc(F)c(Oc2cccc(C(C)(C)C)c2)cc1F` [compound 830]: the log p acidic stood at 2.4.
The compound `CC(C)(C)c1cc(Oc2cc(F)c(N=CN3CCCCC3)cc2F)ccc1Cl` [compound 836] came in with a log p acidic of 2.71 and a log p neutral of 5.74.
As to `CCN(C)C=Nc1cc(F)c(-c2ccc(C(C)(C)C)cc2)cc1F` [compound 846], the log p acidic came out at 2.79.
`CCN(C)C=Nc1cc(F)c(-c2ccc(Cl)c(C(F)(F)F)c2)cc1F` [compound 854] came in with a log p acidic of 2.22.
Turning to `CCN(C)C=Nc1cc(Cl)c(Oc2cccc(C(C)(C)C)c2)cc1I` [compound 862], the log p acidic was found to be 2.98.
As for `CCN(C)C=Nc1cc(C)c(Oc2cccc(C(C)(C)C)c2)cc1Cl` [compound 870], the “log p H3PO4” value stood at 2.76, the “log p HCO2H” value came out at 2.55 and the log p neutral stood at 5.79.
The corresponding values for `Cc1cc(N=CN(C)C(C)C)c(Cl)cc1Oc1cccc(C(C)(C)C)c1` [compound 871] are 2.79, 2.54 and 5.84.
The corresponding values for `Cc1cc(N=CN2CCCCC2)c(Cl)cc1Oc1cccc(C(C)(C)C)c1` [compound 873] are 3, 2.79 and 6.42.
With `CCN(C)C=Nc1cc(C)c(Oc2cccc(C(C)C)c2)cc1Cl` [compound 875], the “log p H3PO4” value was determined as 2.56, the “log p HCO2H” value worked out at 2.38 and the log p neutral came to 5.51.
In the case of `Cc1cc(N=CN2CCCCC2)c(Cl)cc1Oc1cccc(C(C)C)c1` [compound 878], the “log p H3PO4” value was found to be 2.77, the “log p HCO2H” value turned out to be 2.62 and the log p neutral is 6.14.
Take `CCN(C)C=Nc1cc(C)c(Oc2cccc(Oc3ccccc3)c2)cc1Cl` [compound 880]: the “log p H3PO4” value was 2.63, the “log p HCO2H” value is 2.47 and the log p neutral is reported as 5.44.
Take `Cc1cc(N=CN2CCCCC2)c(Cl)cc1Oc1cccc(Oc2ccccc2)c1` [compound 882]: the “log p H3PO4” value amounted to 2.82, the “log p HCO2H” value is 2.66 and the log p neutral stood at 6.03.
For `CCN(C)C=Nc1cc(C)c(Oc2ccc(C(C)(C)C)cc2)cc1Cl` [compound 884] the same measures were 2.87, 2.69 and 5.86.
For `Cc1cc(N=CN2CCCCC2)c(Cl)cc1Oc1ccc(C(C)(C)C)cc1` [compound 886] the same measures were 3.01, 2.78 and 6.49.
Take `CCN(C)C=Nc1cc(C)c(Oc2ccc(C(C)C)cc2)cc1Cl` [compound 888]: the “log p H3PO4” value turned out to be 2.61, the “log p HCO2H” value is reported as 2.45 and the log p neutral is 5.58.
In the case of `Cc1cc(N=CN(C)C(C)C)c(Cl)cc1Oc1ccc(C(C)C)cc1` [compound 889], the “log p H3PO4” value was 2.87, the “log p HCO2H” value amounted to 2.62 and the log p neutral was determined as 5.91.
For `Cc1cc(N=CN2CCCCC2)c(Cl)cc1Oc1ccc(C(C)C)cc1` [compound 891] the same measures were 2.82, 2.64 and 6.21.
The corresponding values for `Cc1cc(N=CN(C)C)c(Cl)cc1Oc1ccc(Cl)c(C(F)(F)F)c1` [compound 892] are 2.35, 2.3 and 5.08.
As for `CCN(C)C=Nc1cc(C)c(Oc2ccc(Cl)c(C(F)(F)F)c2)cc1Cl` [compound 893], the “log p H3PO4” value is 2.51, the “log p HCO2H” value is 2.44 and the log p neutral is listed as 5.49.
For `Cc1cc(N=CN(C)C(C)C)c(Cl)cc1Oc1ccc(Cl)c(C(F)(F)F)c1` [compound 894], the “log p H3PO4” value worked out at 1.73 and the “log p HCO2H” value is 2.55.
Take `CCN(C)C=Nc1cc(C)c(Oc2ccc(Cl)c(C(C)C)c2)cc1Cl` [compound 898]: the “log p H3PO4” value came out at 2.88, the “log p HCO2H” value turned out to be 2.78 and the log p neutral amounted to 6.12.
